Tests used:
[1] = target: T1, 5-hydroxytryptamine receptor 1A (Homo sapiens, UniProt P08908); assay: Binding affinity for 5-hydroxytryptamine 1A receptor determined using [3H]8-OH-DPAT as radioligand
T1 sequence (P08908 whole entry): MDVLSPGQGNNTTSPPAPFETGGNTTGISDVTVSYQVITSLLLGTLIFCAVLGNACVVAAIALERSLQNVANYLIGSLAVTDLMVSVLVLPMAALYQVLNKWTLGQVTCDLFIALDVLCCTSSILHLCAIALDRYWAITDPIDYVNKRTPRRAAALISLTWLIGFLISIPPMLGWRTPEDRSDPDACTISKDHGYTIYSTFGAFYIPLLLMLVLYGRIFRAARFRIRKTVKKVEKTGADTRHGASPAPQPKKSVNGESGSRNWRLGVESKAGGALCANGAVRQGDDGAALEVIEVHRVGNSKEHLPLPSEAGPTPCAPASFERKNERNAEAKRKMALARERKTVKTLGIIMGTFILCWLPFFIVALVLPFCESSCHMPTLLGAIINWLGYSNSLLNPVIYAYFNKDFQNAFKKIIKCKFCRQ

Mus musculus = assay: In vivo inhibition of the apomorphine-induced climbing behavior in mice; format: functional
Rattus norvegicus [2] = assay: In vivo suppression of the conditioned avoidance response (CAR) in rats after po administration of the compound; format: functional
Rattus norvegicus [3] = assay: Tested for occurrence of lower lip retraction in rat after po administration of the compound; format: functional
Rattus norvegicus [4] = assay: In vivo suppression of the conditioned avoidance response (CAR) in rats after ip administration of the compound; format: functional

Cc1cccc(-c2cccc(CN3CCN(c4cccc5[nH]c(=O)oc45)CC3)c2)c1 showed a Ki [1] of 35 nM.
With O=C1COc2c(cccc2N2CCN(Cc3cccc(-c4ccccc4)c3)CC2)N1 the Ki [1] was 49 nM.
Compound Cn1c(=O)oc2c(N3CCN(Cc4cccc(-c5ccccc5)c4)CC3)cccc21 has a Ki [1] of 130 nM.
With Oc1nc2cccc(N3CCN(Cc4cccc(-c5ccc(F)cc5)c4)CC3)c2o1 the Ki [1] was 14 nM.
Oc1nc2cccc(N3CCN(Cc4cc(-c5ccc(F)cc5)ccn4)CC3)c2o1 gave a Ki [1] of 16 nM, an ED50 (Mus musculus) of 0.1 mg/kg and an ED50 (Rattus norvegicus [2]) of under 10 mg/kg. It also gave an ED50 (Rattus norvegicus [3]) of over 30 mg/kg.
c1ccc(-c2cccc(CN3CCN(c4cccc5c4CCCN5)CC3)c2)cc1 gave a Ki [1] of 85 nM.
Work on c1ccc(-c2cccc(CN3CCN(c4cccc5ccoc45)CC3)c2)cc1 yielded a Ki [1] of 38 nM.
For COc1cccc(-c2cccc(CN3CCN(c4cccc5[nH]c(=O)oc45)CC3)c2)c1, the Ki [1] was 21 nM.
Oc1nc2cccc(N3CCN(Cc4cccc(-c5ccsc5)c4)CC3)c2o1 showed an ED50 (Rattus norvegicus [4]) of over 20 mg/kg, a Ki [1] of 17 nM and an ED50 (Mus musculus) of 0.2 mg/kg. The ED50 (Rattus norvegicus [3]) was over 30 mg/kg.
With c1ccc(-c2cccc(CN3CCN(c4cccc5c4OCCN5)CC3)c2)cc1 the Ki [1] was 26 nM.
For Oc1nc2cccc(N3CCN(Cc4cccc(-c5ccc(F)cc5)n4)CC3)c2o1, the Ki [1] was 200 nM.
Compound N#Cc1ccccc1-c1cccc(CN2CCN(c3cccc4nc(O)oc34)CC2)c1 has a Ki [1] of 32 nM.
For COc1ccccc1N1CCN(CCNC(=O)c2ccc(F)cc2)CC1, the Ki [1] was 1 nM.
For O=c1[nH]c2cccc(N3CCN(Cc4ccnc(-c5ccc(F)cc5)c4)CC3)c2o1, the Ki [1] was 21 nM.
Compound O=c1[nH]c2cccc(N3CCN(Cc4cccc(-c5cccs5)c4)CC3)c2o1 has a Ki [1] of 32 nM.
For Oc1nc2cccc(N3CCN(Cc4cncc(-c5ccccc5)c4)CC3)c2o1, the Ki [1] was 7.8 nM, the ED50 (Mus musculus) was 0.1 mg/kg and the ED50 (Rattus norvegicus [2]) was 0.4 mg/kg. For the same compound, the ED50 (Rattus norvegicus [3]) was 3 mg/kg.
O=c1[nH]c2cccc(N3CCN(Cc4cc(-c5ccccc5)ccc4F)CC3)c2o1 gave a Ki [1] of 41 nM.
c1ccc(-c2cccc(CN3CCN(c4cccc5c4OCCO5)CC3)c2)cc1 was tested, and the Ki [1] was 0.91 nM.
Work on Oc1nc2cccc(N3CCN(Cc4cccc(-c5cccc(Cl)c5)c4)CC3)c2o1 yielded a Ki [1] of 42 nM.
O=C(NCCN1CCN(c2cccc3nc(O)oc23)CC1)c1ccc(F)cc1 showed a Ki [1] of 7.9 nM.
c1ccc(-c2cccc(CN3CCN(c4cccc5c4OCO5)CC3)c2)cc1 showed a Ki [1] of 15 nM.
In the case of N#Cc1cccc(-c2cccc(CN3CCN(c4cccc5nc(O)oc45)CC3)c2)c1, the Ki [1] is reported as 23 nM.
In the case of Oc1nc2cccc(N3CCN(Cc4ccc(O)c(-c5ccccc5)c4)CC3)c2o1, the ED50 (Rattus norvegicus [4]) is reported as 20 mg/kg, the Ki [1] is reported as 7.6 nM and the ED50 (Mus musculus) is reported as 7 mg/kg. The ED50 (Rattus norvegicus [3]) was over 30 mg/kg.
O=c1[nH]c2cccc(N3CCN(Cc4cccc(-c5ccccc5)c4)CC3)c2o1 [BIFEPRUNOX] showed a Ki [1] of 9.3 nM, an ED50 (Mus musculus) of 0.1 mg/kg and an ED50 (Rattus norvegicus [2]) of 0.8 mg/kg. It also gave an ED50 (Rattus norvegicus [3]) of 10 mg/kg.
CN1CCN(C2=Nc3cc(Cl)ccc3Nc3ccccc32)CC1 [CLOZAPINE] gave an ED50 (Mus musculus) of 22 mg/kg and an ED50 (Rattus norvegicus [2]) of 32 mg/kg.
Fc1ccc(-c2ccc(CN3CCN(c4cccc5ccoc45)CC3)[nH]2)cc1 [ELOPIPRAZOLE] gave a Ki [1] of 1.5 nM.
O=C(CCCN1CCC(O)(c2ccc(Cl)cc2)CC1)c1ccc(F)cc1 [HALOPERIDOL] was tested, and the ED50 (Mus musculus) was 0.2 mg/kg and the ED50 (Rattus norvegicus [2]) was 0.3 mg/kg.
For Cc1nc2n(c(=O)c1CCN1CCC(c3noc4cc(F)ccc34)CC1)CCCC2 [RISPERIDONE], the ED50 (Mus musculus) was 0.1 mg/kg and the ED50 (Rattus norvegicus [2]) was 1 mg/kg.
